SMILES strings stand for the structures. Read-outs that look alike come from different tables or passages of the source.

The test system of data set [1] is IP OVCAR-3 tumors. The experiment in a line: Pilot therapy of IP OVCAR-3 tumors in athymic mice. The data set is classed as in vivo. The conditions noted are these: for whole body retention, median / whole body retention: after 14 days; for whole body retention: value with spread in brackets. From the text: In pilot therapy experiments, the effects of unmodified ^125IUdR on the growth of IP OVCAR-3 tumors were compared to the therapeutic effects of the 6b diastereomeric mixture and 7b diastereomeric mixture. The tumor model used in this study, OVCAR-3 cell line, was established from the malignant ascites of a patient with progressive adenocarcinoma of the ovary after many types of chemotherapy including cyclophosphamide, adriamycin, and cisplatin. OVCAR-3 is resistant in vitro to clinically relevant concentrations of adriamycin, melphalan, and cisplatin (Hamilton T C, Young R C, Louie K G, Behrens B C, McKoy W M, Grotzinger K R, Ozols R F. Characterization of a xenograft model of human ovarian carcinoma which produces ascites and intraabdominal carcinomatosis in mice. Cancer Res. 1984; 44:5286-90.). In immunodeficient mice, IP injected OVCAR-3 cells produce malignant ascites, peritoneal carcinomatosis, and serosal and visceral seeding that, if left untreated, leads to death from respiratory compromise, hemorrhage from invasion of intra-abdominal blood vessels, and bowel obstruction. Substantial literature data (nearly 100 publications) confirm that this tumor model has pathogenesis and metastatic properties similar to those of human ovarian cancer.
Mice received IP implants of approximately 2.4×10^8 OVCAR-3 cells/mouse isolated from fresh OVCAR-3 mouse ascites. Cell viability was measured before and after injection, and was ≧90%. Four days after tumor cells were implanted, the mice received SQ transponders and were randomized via a lottery into four groups: NT—untreated controls that received IP injection of PBS; 7b group—receiving IP doses of the 7b diastereomeric mixture in PBS (average 0.4 mCi/mouse (14.8 MBq)); 6b group—receiving IP doses of the 6b diastereomeric mixture in PBS (average dose 0.36 mCi/mouse (13.3 MBq)); and ^125IUdR group—receiving IP doses of ^125IUdR (average 0.43 mCi/mouse (15.9 MBq)) in PBS. Mice were monitored three times per week.
Mice in the 6b group received 0.22 mCi (8.1 MBq) 6b diastereomeric mixture on day 27; and on day 28 mice in ^125IUdR group were treated with additional 0.2 mCi (7.4 MBq) ^125IUdR. Slight differences in the dosing schedule and the administered doses are because of the required large quantities of the compounds. For these experiments, ˜20 mCi of no-carrier added and radiochemically pure compounds were required. Each agent was purified on the analytical reversed phase HPLC column. The use of preparative columns in this case is impractical because the products are recovered in large volumes of acetonitrile-containing solvent that must be evaporated to dryness before the use in mice.
Overall, mice in the 7b group were treated with an average of 0.58 mCi (21.5 MBq) 7b diastereomeric mixture; mice in the 6b group were treated with an average of 0.58 mCi (21.5 MBq) 6b diastereomeric mixture, and mice in the ^125IUdR group were treated with an average of 0.63 mCi (23.3 MBq) ^125IUdR.
The therapy was terminated 7 weeks after the first dosing. Mice were sacrificed for the biodistribution study. Blood and solid tumor were taken for the evaluation of their radioactive content. The peritoneal cavity was lavaged with 2-mL aliquots of PBS, and PBS wash and ascites were collected. One mL of the ascites suspension with cancer cells was taken for gamma counting. The rest of the abdominal fluid was centrifuged and 0.5 mL of the supernatant was reserved for gamma counting. The weight of the cell pellet and the supernatant were determined.
Two weeks after the first dose of radiolabeled compounds, the whole body radioactivity was measured to determine to what extent the additional doses of the compounds may increase the radiation burden and therefore may be detrimental to the animal health (FIG. 11B). The absolute amounts were low and ranged from […] for the 6b group to […] in the 7b group. […]

Data set [2] has as its target human BChE (Homo sapiens, UniProt P06276). The experiment in a line: UV-based BChE inhibition (IC50) assay. The data set is classed as biochemical. Particulars: non-radioactive compounds, 30 min preincubation, room temperature, pH 7.0. As for the experimental part:
Assays employed to determine IC50 were developed by the present inventors and utilized UV based detection. For UV-based assays, a BChE solution in 0.1 M potassium phosphate, pH 7.0 was placed in the desired numbers of wells of a 96-well plate (0.05 mL/well). The investigated compound was diluted in DMSO to produce concentrations from 0 to 10 μM in DMSO and 0.002 mL/well of these dilutions was added to BChE-containing wells. Reaction mixtures were incubated at room temperature for 30 min. The reagent consisting of BChE substrate, 1 mM (2-mercaptoethyl)trimethylammonium iodide butyrate, and 0.5 mM 5,5′-dithio-bis(2-nitrobenzoic acid) in 0.1 M potassium phosphate, pH 7.0 (prepared fresh for each assay) was added, 0.25 mL per well. The mixture was incubated at room temperature and the OD at λ=405 nm was read at 1, 2, 3, 4, 5, 10, and 15 min after the addition of this reagent using the Opsys MR™plate reader (Dynex Technologies, Chantilly, Va.). Data were analyzed using the IC50 nonlinear regression function provided by GraphPad Prism (GraphPad Software, La Jolla, Calif.).
The compound binding of several non-radioactive compounds of the method of the invention were analyzed by the aforementioned human BChE compound binding study to determine their affinity for the therapeutic target (Table 1).

Sequence of human BChE (P06276 29-602): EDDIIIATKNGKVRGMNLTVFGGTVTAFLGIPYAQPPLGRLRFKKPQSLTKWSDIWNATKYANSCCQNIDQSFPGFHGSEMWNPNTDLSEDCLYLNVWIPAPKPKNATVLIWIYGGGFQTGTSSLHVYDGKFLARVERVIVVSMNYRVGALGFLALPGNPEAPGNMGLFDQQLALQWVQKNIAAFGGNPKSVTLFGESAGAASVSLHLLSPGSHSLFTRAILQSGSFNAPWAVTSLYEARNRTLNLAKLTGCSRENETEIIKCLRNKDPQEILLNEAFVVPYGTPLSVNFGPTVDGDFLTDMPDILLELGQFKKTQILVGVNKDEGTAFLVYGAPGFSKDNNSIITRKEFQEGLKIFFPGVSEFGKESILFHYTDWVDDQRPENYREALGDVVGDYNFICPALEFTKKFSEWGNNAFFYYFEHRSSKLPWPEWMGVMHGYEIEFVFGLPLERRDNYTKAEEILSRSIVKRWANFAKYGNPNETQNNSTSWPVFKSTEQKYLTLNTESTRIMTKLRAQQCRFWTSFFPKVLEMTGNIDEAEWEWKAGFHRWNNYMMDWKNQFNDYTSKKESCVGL

Consider `Cc1cccc2c1OP(=O)(OC[C@H]1O[C@@H](n3cc([125I])c(=O)[nH]c3=O)C[C@@H]1O)OC2` (stereo partly shown) [Compound 7b, 5-[^125I]-Iodo-5′-O-cyclo(3-methylSaligenyl)-2′-deoxyuridine Monophosphate], for which, in data set [1], the “whole body retention, median” value came to 1.25 % ID and the whole body retention is on record as 1.21 (0.12) % ID. For the same compound, the “reduction in solid tumor deposits as compared to ^125IUdR” value in data set [1] (diastereomeric mixtures IP, total average 0.58 mCi, 7 weeks after first dose) is on record as around 50%. Besides, the “tumor retention compared to ^125IUdR” value in data set [1] (necropsy 4 weeks after the boost dose) is reported as “significantly higher compared to ^125IUdR”.

`O=c1[nH]c(=O)n(C2CC(O)C(COP3(=O)OCc4ccccc4O3)O2)cc1I` (single isomer, unassigned) [6 - fast, 5-Iodo-5′-O-cycloSaligenyl-2′-deoxyuridine Monophosphate]: in data set [2] (IC50 (nM)), the IC50 was 1280 nM.

Take `O=c1[nH]c(=O)n(C2CC(O)C(COP3(=O)OCc4ccccc4O3)O2)cc1I` (single isomer, unassigned) [6 - slow, 5-Iodo-5′-O-cycloSaligenyl-2′-deoxyuridine Monophosphate]: the IC50 in data set [2] (IC50 (nM)) was 9.2 nM.

In the case of `O=c1[nH]c(=O)n([C@H]2C[C@H](O)[C@@H](CO)O2)cc1[125I]` [^125IUdR, 5-[^125I]-iodo-2′-deoxyuridine, reference compound], in data set [1], the “whole body retention, median” value was 1.08 % ID and the whole body retention is 0.97 (0.11) % ID.

Take `CC(C)(C)c1cc(C(C)(C)C)c2c(c1F)COP(=O)(OCC1OC(n3cc(I)c(=O)[nH]c3=O)CC1F)O2` (single isomer, unassigned) [24 - fast, 5-Iodo-5′-O-[cyclo-3,5-Di-(tert-butyl)-6-fluoroSaligenyl]-3′-fluoro-2′,3′-dideoxyuridine Monophosphate]: in data set [2] (IC50 (nM)), the IC50 was 549 nM.

Turning to `Cc1cn(C2CC(F)C(COP3(=O)OCc4c(F)c(C(C)(C)C)cc(C(C)(C)C)c4O3)O2)c(=O)[nH]c1=O` (single isomer, unassigned) [23 - slow, 5′-O-[cyclo-3,5-Di-(tert-butyl)-6-fluoroSaligenyl]-3′-deoxy-3′-fluorothymidine Monophosphate], in data set [2] (IC50 (nM)), the IC50 stood at 42.6 nM.

For the compound `Cc1cccc2c1OP(=O)(OCC1OC(n3cc(I)c(=O)[nH]c3=O)CC1O)OC2` (single isomer, unassigned) [7 - slow, 5-Iodo-5′-O-cyclo(3-methylSaligenyl)-2′-deoxyuridine Monophosphate], in data set [2] (IC50 (nM)), the IC50 turned out to be 61.2 nM.

For `CC(C)(C)c1cc(C(C)(C)C)c2c(c1F)COP(=O)(OC[C@H]1O[C@@H](n3cc(I)c(=O)[nH]c3=O)C[C@@H]1O)O2` (stereo partly shown) [8 - slow, 5-Iodo-5′-O-[cyclo-3,5-di-(tert-butyl)-6-fluoroSaligenyl]-2′-deoxyuridine Monophosphate], in data set [2] (read-out: IC50), the IC50 is 50.1 nM.

Consider `Cc1cccc2c1OP(=O)(OCC1OC(n3cc(I)c(=O)[nH]c3=O)CC1O)OC2` (single isomer, unassigned) [7 - fast, 5-Iodo-5′-O-cyclo(3-methylSaligenyl)-2′-deoxyuridine Monophosphate], for which the IC50 in data set [2] (IC50 (nM)) is above 7000 nM.

As for `CC(C)(C)c1cc(C(C)(C)C)c2c(c1F)COP(=O)(OC[C@H]1O[C@@H](n3cc(I)c(=O)[nH]c3=O)C[C@@H]1O)O2` (single isomer, unassigned) [8 - fast, 5-Iodo-5′-O-[cyclo-3,5-di-(tert-butyl)-6-fluoroSaligenyl]-2′-deoxyuridine Monophosphate], in data set [2] (IC50 (nM)), the IC50 was above 60000 nM.

For the compound `CC(C)(C)c1cc(C(C)(C)C)c2c(c1F)COP(=O)(OCC1OC(n3cc(I)c(=O)[nH]c3=O)CC1F)O2` (single isomer, unassigned) [24 - slow, 5-Iodo-5′-O-[cyclo-3,5-Di-(tert-butyl)-6-fluoroSaligenyl]-3′-fluoro-2′,3′-dideoxyuridine Monophosphate], the IC50 in data set [2] (IC50 (nM)) amounted to 19.8 nM.

For `Cc1cn(C2CC(F)C(COP3(=O)OCc4c(F)c(C(C)(C)C)cc(C(C)(C)C)c4O3)O2)c(=O)[nH]c1=O` (single isomer, unassigned) [23 - fast, 5′-O-[cyclo-3,5-Di-(tert-butyl)-6-fluoroSaligenyl]-3′-deoxy-3′-fluorothymidine Monophosphate], in data set [2] (IC50 (nM)), the IC50 turned out to be 203 nM.

For orientation: IC50 means the concentration needed to halve the response being measured.

The values are drawn from US20120269725A1, “TARGETED RADIOLABELED COMPOUNDS AND THEIR USE FOR THE TREATMENT AND DIAGNOSIS OF CANCER” (priority 2009, published 2012).
